The record followed here is US20200361895A1, “NOVEL SULFONAMIDE CARBOXAMIDE COMPOUNDS” (Inflazome Limited, priority 2017, published 2020).

Assay [1] concerns the target T1, NLRP3 (Homo sapiens, UniProt Q96P20). The assay can be described thus: THP-1 cells pyroptosis assay (LPS + nigericin, resazurin readout; THP IC50). In kind it is cell-based. Details: Seed THP-1 cells (25,000 cells/well) containing 1.0 μg/ml LPS in 40 μl of RPMI medium; host or cells: THP-1 cells. In outline:
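IC50 from 4-parameter fit of resazurin fluorescence (100 μM, 1-2 hrs), reflecting surviving cells after pyroptosis. LPS-primed (1 μg/ml) THP-1 cells in FBS-free RPMI got compound for 3 hrs at 37° C (top 10 μM, half-log, 8 points), then nigericin 5 μM for 1 hr.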

The target in assay [2] is T1, NLRP3. Nature of the assay: Human whole blood IL1β release assay (LPS + nigericin, AlphaLisa IL-1β; HWB IC50). In kind it is cell-based. Details: Human whole blood in Li-heparin tubes was obtained from healthy donors from a volunteer donor panel; from tissue; host or cells: human whole blood from healthy donors. As to conditions: IL-1β release. On the procedure:
For systemic delivery, the ability to inhibit NLRP3 when the compounds are present within the bloodstream is of great importance. For this reason, the NLRP3 inhibitory activity of a number of compounds in human whole blood was investigated in accordance with the following protocol.
Human whole blood in Li-heparin tubes was obtained from healthy donors from a volunteer donor panel. • 1. Plate out 80 μl of whole blood containing 1 μg/ml of LPS in 96-well, clear bottom cell culture plate (Corning #3585) • 2. Add 10 μl compound (8 points half-log dilution with 10 μM top dose) or vehicle (DMSO 0.1% FAC) to the appropriate wells • 3. Incubate for 3 hrs at 37° C., 5% CO2 • 4. Add 10 μl nigericin (Sigma #N7143) (10 μM FAC) to all wells • 5. Incubate for 1 hr at 37° C., 5% CO2 • 6. At the end of the incubation period, spin plates at 300×g for 5 mins to pellet cells and remove 20 μl of supernatant and add to 96-well v-bottom plates for IL-1β analysis (note: these plates containing the supernatants can be stored at −80° C. to be analysed at a later date) • 7. IL-1β was measured according to the manufacturer protocol (Perkin Elmer-AlphaLisa IL-1 Kit AL220F-5000) • 8. IC50 data is fitted to a non-linear regression equation (log inhibitor vs response-variable slope 4-parameters)
(Alpha assays give light when donor and acceptor beads are brought close together.)

Counter-ions that a name gives are not always drawn. A value given as a limit tells only on which side of the number the result lay.

T1 sequence (Q96P20 whole entry): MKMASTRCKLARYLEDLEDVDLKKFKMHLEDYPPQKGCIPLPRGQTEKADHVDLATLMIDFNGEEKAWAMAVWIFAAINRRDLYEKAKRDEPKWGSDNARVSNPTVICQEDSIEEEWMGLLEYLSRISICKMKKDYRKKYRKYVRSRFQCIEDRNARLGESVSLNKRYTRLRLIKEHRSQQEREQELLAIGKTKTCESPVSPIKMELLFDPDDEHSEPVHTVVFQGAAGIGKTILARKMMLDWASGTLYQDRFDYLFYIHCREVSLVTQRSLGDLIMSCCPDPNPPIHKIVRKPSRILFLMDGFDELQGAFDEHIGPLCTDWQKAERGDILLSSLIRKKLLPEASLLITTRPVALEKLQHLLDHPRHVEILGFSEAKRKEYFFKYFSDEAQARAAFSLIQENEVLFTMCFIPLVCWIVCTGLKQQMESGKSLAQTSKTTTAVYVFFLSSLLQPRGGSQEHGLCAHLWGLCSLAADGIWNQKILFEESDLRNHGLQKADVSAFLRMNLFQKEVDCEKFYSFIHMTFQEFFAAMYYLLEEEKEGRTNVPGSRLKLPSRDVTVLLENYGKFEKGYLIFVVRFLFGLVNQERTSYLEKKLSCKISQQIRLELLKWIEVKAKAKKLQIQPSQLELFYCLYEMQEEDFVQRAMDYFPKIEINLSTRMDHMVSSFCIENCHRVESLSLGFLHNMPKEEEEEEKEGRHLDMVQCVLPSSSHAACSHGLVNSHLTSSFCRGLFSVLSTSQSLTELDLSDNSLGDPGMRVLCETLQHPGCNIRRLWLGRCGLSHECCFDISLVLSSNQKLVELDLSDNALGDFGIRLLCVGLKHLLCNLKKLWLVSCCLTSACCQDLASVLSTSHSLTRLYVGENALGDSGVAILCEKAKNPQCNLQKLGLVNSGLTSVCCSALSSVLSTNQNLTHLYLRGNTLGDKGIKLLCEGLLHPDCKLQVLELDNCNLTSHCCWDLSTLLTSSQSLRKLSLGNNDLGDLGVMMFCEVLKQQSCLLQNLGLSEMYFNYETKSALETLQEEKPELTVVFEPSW

For the compound `CC(C)c1cc(F)cc(-c2ccccc2)c1NC(=O)NS(=O)(=O)c1cc(CN(C)C)n(C(C)C)n1` [Example 46, 5-((Dimethylamino)methyl)-N-((5-fluoro-3-isopropyl-[1,1′-biphenyl]-2-yl)carbamoyl)-1-isopropyl-1H-pyrazole-3-sulfonamide], the half-maximal inhibitory concentration (IC50) in assay [1] is not above 1 µM; in assay [2], not above 5 µM.

Turning to `CC(C)c1cc(F)cc(-c2ccnc(C#N)c2)c1NC(=O)NS(=O)(=O)c1cc(CN(C)C)n(C)n1` [Example 48, N-((2-(2-Cyanopyridin-4-yl)-4-fluoro-6-isopropylphenyl)carbamoyl)-5-((dimethylamino)methyl)-1-methyl-1H-pyrazole-3-sulfonamide], the IC50 in assay [1] and in assay [2] was not above 0.5 µM throughout.

As for `CCn1nc(S(=O)(=O)NC(=O)Nc2c(-c3ccnc(C#N)c3)cc(F)cc2C(C)C)cc1CN(C)C` [Example 49, N-((2-(2-Cyanopyridin-4-yl)-4-fluoro-6-isopropylphenyl)carbamoyl)-5-((dimethylamino)methyl)-1-ethyl-1H-pyrazole-3-sulfonamide], the IC50 in assay [1] and in assay [2] was not above 0.5 µM each time.

On to `COc1cc(-c2cc(F)cc(C(C)C)c2NC(=O)NS(=O)(=O)c2cc(C3(OC)COC3)n(C)n2)ccn1` [Example 52, N-((4-Fluoro-2-isopropyl-6-(2-methoxypyridin-4-yl)phenyl)carbamoyl)-5-(3-methoxyoxetan-3-yl)-1-methyl-1H-pyrazole-3-sulfonamide], for which the IC50 in assay [1] and in assay [2] was not above 0.5 µM each time.

As to `COc1cc(-c2cc(F)cc(C(C)C)c2NC(=O)NS(=O)(=O)c2cn(C(C)C)cn2)ccn1` [Example 53, N-((4-Fluoro-2-isopropyl-6-(2-methoxypyridin-4-yl)phenyl)carbamoyl)-1-isopropyl-1H-imidazole-4-sulfonamide], the IC50 in assay [1] was not above 0.5 µM; in assay [2], not above 5 µM.

For the compound `COc1cc(-c2ccc3c(c2NC(=O)NS(=O)(=O)c2ccn(C(C)C)n2)CCC3)ccn1` [Example 56, 1-Isopropyl-N-((5-(2-methoxypyridin-4-yl)-2,3-dihydro-1H-inden-4-yl)carbamoyl)-1H-pyrazole-3-sulfonamide], the IC50 in assay [1] and in assay [2] was not above 0.5 µM each time.

Consider `CC(C)c1cc(F)cc(-c2cccnc2)c1NC(=O)NS(=O)(=O)c1ccn(CCN(C)C)n1` [Example 57, 1-(2-(Dimethylamino)ethyl)-N-((4-fluoro-2-isopropyl-6-(pyridin-3-yl)phenyl)carbamoyl)-1H-pyrazole-3-sulfonamide], for which the concentration for half-maximal inhibition (IC50) in assay [1] and in assay [2] was not above 1 µM each time.

Turning to `CCN(CC)CCCS(=O)(=O)NC(=O)Nc1c(-c2cccnc2)cc(F)cc1C(C)C` [Example 58, 3-(Diethylamino)-N-((4-fluoro-2-isopropyl-6-(pyridin-3-yl)phenyl)carbamoyl)propane-1-sulfonamide], the IC50 in assay [1] and in assay [2] was not above 0.5 µM each time.

As to `COC1(c2cc(S(=O)(=O)NC(=O)Nc3c(-c4cccnc4)cc(F)c4c3CCC4)nn2C)COC1` [Example 59, N-((7-Fluoro-5-(pyridin-3-yl)-2,3-dihydro-1H-inden-4-yl)carbamoyl)-5-(3-methoxyoxetan-3-yl)-1-methyl-1H-pyrazole-3-sulfonamide], the figures for the IC50 in assay [1] and in assay [2] were not above 0.5 µM and not above 1 µM, respectively.

As for `CN(C)CCn1ccc(S(=O)(=O)NC(=O)Nc2c(-c3cccnc3)cc(F)c3c2CCC3)n1` [Example 62, 1-(2-(Dimethylamino)ethyl)-N-((7-fluoro-5-(pyridin-3-yl)-2,3-dihydro-1H-inden-4-yl)carbamoyl)-1H-pyrazole-3-sulfonamide], the values for the concentration for half-maximal inhibition (IC50) in assay [1] and in assay [2] were not above 0.5 µM and not above 5 µM, respectively.

In the case of `COc1cc(-c2cc(F)c3c(c2NC(=O)NS(=O)(=O)c2ccn(CCN(C)C)n2)CCC3)ccn1` [Example 63, 1-(2-(Dimethylamino)ethyl)-N-((7-fluoro-5-(2-methoxypyridin-4-yl)-2,3-dihydro-1H-inden-4-yl)carbamoyl)-1H-pyrazole-3-sulfonamide], the IC50 in assay [1] and in assay [2] was not above 0.5 µM in each case.

As to `CCn1nc(S(=O)(=O)NC(=O)Nc2c(-c3cccnc3)cc(F)c3c2CCC3)cc1CN(C)C` [Example 65, 5-((Dimethylamino)methyl)-1-ethyl-N-((7-fluoro-5-(pyridin-3-yl)-2,3-dihydro-1H-inden-4-yl)carbamoyl)-1H-pyrazole-3-sulfonamide], the half-maximal inhibitory concentration (IC50) in assay [1] and in assay [2] was not above 0.5 µM in each case.

On to `CCn1nc(S(=O)(=O)NC(=O)Nc2c(-c3ccnc(OC)c3)cc(F)c3c2CCC3)cc1CN(C)C` [Example 66, 5-((Dimethylamino)methyl)-1-ethyl-N-((7-fluoro-5-(2-methoxypyridin-4-yl)-2,3-dihydro-1H-inden-4-yl)carbamoyl)-1H-pyrazole-3-sulfonamide], for which the IC50 in assay [1] and in assay [2] was not above 0.5 µM each time.

Take `CCn1nc(S(=O)(=O)NC(=O)Nc2c(-c3cccc(C#N)c3)ccc3c2CCC3)cc1CN(C)C` [Example 68, N-((5-(3-Cyanophenyl)-2,3-dihydro-1H-inden-4-yl)carbamoyl)-5-((dimethylamino)methyl)-1-ethyl-1H-pyrazole-3-sulfonamide]: the figures for the IC50 in assay [1] and in assay [2] were not above 0.5 µM and not above 1 µM, respectively.

For `COc1cc(-c2ccc3c(c2NC(=O)NS(=O)(=O)c2ccc(=O)n(C(C)C)c2)CCC3)ccn1` [Example 70, 1-Isopropyl-N-((5-(2-methoxypyridin-4-yl)-2,3-dihydro-1H-inden-4-yl)carbamoyl)-6-oxo-1,6-dihydropyridine-3-sulfonamide], the IC50 in assay [1] and in assay [2] was not above 0.5 µM in each case.

Regarding `CC(C)n1cc(S(=O)(=O)NC(=O)Nc2c(-c3ccnc(C#N)c3)ccc3c2CCC3)ccc1=O` [Example 71, N-((5-(2-Cyanopyridin-4-yl)-2,3-dihydro-1H-inden-4-yl)carbamoyl)-1-isopropyl-6-oxo-1,6-dihydropyridine-3-sulfonamide, sodium salt], the IC50 is not above 0.5 µM in assay [1] and not above 1 µM in assay [2].

Consider `CC(C)n1cc(S(=O)(=O)NC(=O)Nc2c(-c3ccnc(C#N)c3)ccc3c2CCC3)ncc1=O` [Example 72, N-((5-(2-Cyanopyridin-4-yl)-2,3-dihydro-1H-inden-4-yl)carbamoyl)-4-isopropyl-5-oxo-4,5-dihydropyrazine-2-sulfonamide, sodium salt], for which the IC50 in assay [1] is not above 0.5 µM; in assay [2] it was not above 1 µM.

Turning to `COc1cc(-c2ccc3c(c2NC(=O)NS(=O)(=O)c2cn(C(C)C)c(=O)cn2)CCC3)ccn1` [Example 73, 4-Isopropyl-N-((5-(2-methoxypyridin-4-yl)-2,3-dihydro-1H-inden-4-yl)carbamoyl)-5-oxo-4,5-dihydropyrazine-2-sulfonamide, partial ammonium salt], the 50% inhibitory concentration (IC50) in assay [1] and in assay [2] was not above 0.5 µM each time.

`COc1cc(-c2ccc3c(c2NC(=O)NS(=O)(=O)C2CN(C(C)C)C2)CCC3)ccn1` [Example 76, 1-Isopropyl-N-((5-(2-methoxypyridin-4-yl)-2,3-dihydro-1H-inden-4-yl)carbamoyl)azetidine-3-sulfonamide]: the half-inhibitory concentration (IC50) in assay [1] and in assay [2] was not above 0.5 µM in each case.

Consider `CC(C)N1CC(S(=O)(=O)NC(=O)Nc2c(-c3ccncc3)cc(F)c3c2CCC3)C1` [Example 77, N-((7-Fluoro-5-(pyridin-4-yl)-2,3-dihydro-1H-inden-4-yl)carbamoyl)-1-isopropylazetidine-3-sulfonamide], for which the IC50 in assay [1] is not above 0.5 µM; in assay [2], not above 1 µM.

Consider `O=C(Nc1c(-c2ccncc2)cc(F)c2c1CCC2)NS(=O)(=O)C1CN(C2CCC2)C1` [Example 81, 1-Cyclobutyl-N-((7-fluoro-5-(pyridin-4-yl)-2,3-dihydro-1H-inden-4-yl)carbamoyl)azetidine-3-sulfonamide], for which the half-inhibitory concentration (IC50) in assay [1] was not above 0.5 µM; in assay [2] it was not above 1 µM.

On to `CC(C)n1cc(S(=O)(=O)NC(=O)Nc2c(-c3ccncc3)cc(F)c3c2CCC3)ccc1=O` [Example 91, N-((7-Fluoro-5-(pyridin-4-yl)-2,3-dihydro-1H-inden-4-yl)carbamoyl)-1-isopropyl-6-oxo-1,6-dihydropyridine-3-sulfonamide], for which the results for the 50% inhibitory concentration (IC50) in assay [1] and in assay [2] were not above 0.5 µM and not above 1 µM, respectively.

As for `COc1cc(-c2ccc3c(c2NC(=O)NS(=O)(=O)c2cnc(=O)n(C(C)C)c2)CCC3)ccn1` [Example 95, 1-Isopropyl-N-((5-(2-methoxypyridin-4-yl)-2,3-dihydro-1H-inden-4-yl)carbamoyl)-2-oxo-1,2-dihydropyrimidine-5-sulfonamide, sodium salt], the concentration for half-maximal inhibition (IC50) was not above 0.5 µM in assay [1] and not above 1 µM in assay [2].

By IC50 is commonly meant the concentration needed to halve the response being measured.
